Test results: patent US20090238792A1, “SUPPRESSION OF POSTOPERATIVE ILEUS” (University of Pittsburgh of the Commonwealth System of …, priority 2007, published 2009)

Columns and labels:
Assay type in all cases: in vivo, rat
nitrite (nitric oxide) = assay: Nitrite release (Griess reaction) from organ cultured muscularis
Method: (§1) Age matched animals treated with vehicle (normal saline) or valine (263.5 mg/kg, osmotic control) at appropriate time points and at equal volumes served as controls.
(§2) The rodent intestine was subjected to a standardized degree of surgical manipulation as described previously (14). Rats were anesthetized by isoflurane inhalation and the abdomen was opened by a midline laparotomy. The cecum was eventrated and laid out onto a moist gauze. Then, the intestine was inspected along its length and gently compressed using moist cotton applicators. The midline incision was closed by two layers of continuous sutures. All operative procedures were performed under sterile conditions with the intestine being handled only by instruments and never touched directly. Animals were killed at specific time points postoperatively by isoflurane anesthesia inhalation overdose and heart incision.
Tissue culture and determination of nitrite and prostanoid release in supernatant: The rat small intestine and colon were processed for tissue culture at 24 hours as described previously, (N=5-8) (25). Briefly, the muscularis was isolated by stripping the muscularis from the mucosa and then cut into small pieces and washed twice in Hank's balanced salt solution (HBSS) with 100 U/ml penicillin G and 100 μg/ml streptomycin. Aliquots of muscularis ([…]) were incubated (37° C., 5% CO2) in 6-well tissue culture plates containing 3 ml of supplemented Dulbecco's modified Eagle medium (DMEM)-F12 with 100 U/ml penicillin G and 100 μg/ml streptomycin. After an incubation period of 24 hours, 500 μl aliquots of supernatant were collected, frozen in liquid nitrogen and stored at −80° C. The muscle tissue was blotted dry, and the weight was estimated. To estimate the generation of NO from the intestinal muscularis, nitrite production was measured by the Griess reaction (44). Supernatant from the tissue culture was mixed with equal amount of Griess reagent (0.1% N-(1-naphtyl)ethyl-enediamine dihydrochloride and 1% sulfanilamide in 6% phosphoric acid; 1:1) and incubated at room temperature for 10 minutes. The absorbance at 550 nm was measured with a microplate reader and compared with standard prepared from serial dilutions of sodium nitrite. Each standard and supernatant sample was analyzed in duplicate, and the mean value of nitrite production was normalized to the tissue weight.
(§3) Methods: ACI-rats (180-220 g) underwent standardized surgical manipulation of the intestine. […] Age matched animals treated with vehicle or valine (osmotic control) at appropriate time points and at equal volumes served as controls. […] Postoperative mediator mRNA expression in the intestinal muscularis was determined by real-time RT PCR. Leukocyte extravasation was investigated in muscularis whole-mounts. Nitrite production was measured in muscularis cultures. In vivo transit of FITC-dextran was measured using geometric center analysis (GC). In vitro circular muscle contractility was assessed in a standard organ bath. Statistical analysis: unpaired Student t test, p<0.05, mean±SEM.

prostanoids = assay: Prostanoid release (ELISA) from organ cultured muscularis; conditions: manipulated rats, glycine 170 mg/kg or valine
Method: Age matched animals treated with vehicle (normal saline) or valine (263.5 mg/kg, osmotic control) at appropriate time points and at equal volumes served as controls. The rodent intestine was subjected to a standardized degree of surgical manipulation as described previously (14). Rats were anesthetized by isoflurane inhalation and the abdomen was opened by a midline laparotomy. The cecum was eventrated and laid out onto a moist gauze. Then, the intestine was inspected along its length and gently compressed using moist cotton applicators. The midline incision was closed by two layers of continuous sutures. All operative procedures were performed under sterile conditions with the intestine being handled only by instruments and never touched directly. Animals were killed at specific time points postoperatively by isoflurane anesthesia inhalation overdose and heart incision. The synthesis of prostanoids released into the tissue culture supernatant over a period of 24 hours was assayed by ELISA. After incubation the culture median and tissue was inspected, 500 μL aliquots of supernatant were frozen in liquid nitrogen and stored at −80° C. The muscle tissue was blotted dry and weighed. Culture supernatants were assayed for the measurement of prostaglandin secretion by enzyme immunoassay (Cayman Chemicals, Ann Arbor, Mich.). The ELISA was carried out in a 1:10 and 1:30 dilution. The assay was corrected for wet tissue weights and the prostaglandin ELISA kit sensitivity was 20 pg/ml.

[1] = system: MPO positive leukocytes in the intestinal muscularis; assay: Myeloperoxidase (MPO) histochemistry: leukocyte infiltration in muscularis whole-mounts; conditions: for infiltrating MPO positive leukocytes: manipulated rats, 24 h postoperatively, SM vehicle 95±6.4
Method: as §1, §2
Histochemistry and Immunohistochemistry: Leukocyte infiltration was quantified on rat whole-mounts of the intestinal muscularis as described previously (N=6-8) (43). Myeloperoxidase (MPO) positive cells were detected using a mixture of 30 mg Hanker-Yates reagent, 30 ml KRB and […] 3% hydrogen peroxide for 10 minutes. Leukocytes were counted in 5 randomly chosen areas in each specimen (3 specimen per animal) at a magnification of 200×.
as §3

What does the source list for `NCC(=O)O` [glycine]?
attenuation of postoperative increase in nitrite production (nitrite (nitric oxide); Example 5, muscularis cultures, glycine (170 mg) i.v. 1 hour prior to surgery): 39%; nitrite release, fold increase over control, colon (nitrite (nitric oxide); manipulated rats, colonic muscularis 24 h organ culture, glycine 170 mg/kg or valine, SM vehicle 10.9-fold): 2.5 fold; nitrite release, fold increase over control, jejunum (nitrite (nitric oxide); manipulated rats, jejunal muscularis 24 h organ culture, glycine 170 mg/kg or valine, SM vehicle 11.4-fold): 2.7 fold; Griess reaction measurements from the unmanipulated muscularis (nitrite (nitric oxide); unmanipulated, glycine 170 mg/kg): no significant effects; prostanoid release, fold of control, colon (prostanoids; colonic muscularis 24 h organ culture, SM 3.1-fold): 0.7 fold; prostanoid release, fold of control, jejunum (prostanoids; jejunal muscularis 24 h organ culture, SM 5.9-fold): 0.9 fold; reduction of infiltrating leukocytes compared to manipulated vehicle pretreated rats ([1]; glycine 85 mg/kg): 18%; reduction of infiltrating leukocytes compared to manipulated vehicle pretreated rats ([1]; glycine 170 mg/kg): 27%; infiltrating MPO positive leukocytes ([1]; 85 mg/kg glycine): 78±5.1 cells/field at 200×; infiltrating MPO positive leukocytes ([1]; glycine 170 mg/kg or valine (263.5 mg/kg)): 69±5.7 cells/field at 200×; MPO positive cells ([1]; rats without intestinal manipulation, glycine injected, vehicle 2±0.9): 2±0.5 cells/field at 200× magnification
